# Measured values taken from patent publication US8871946B2, “Benzimidazole-4-carboxamide derivatives, their preparation methods, pharmaceutical compositions and their uses” (Zhejiang Medicine Co., Ltd. Xinchang Pharmaceutical Factory, priority 2009, dated 2014).
# System: coxsackie B3 viruses
# Assay: Measures of anti-coxsackie B3 viruses activity of the compounds in Vero cells
# Type: cell-based
# Conditions: half inhibitory concentration for viruses
# From the text: Measures of Anti-Coxsackie B3 Viruses Activity of the Compounds The products are applied for measures of antivirus properties of Vero cells. Refer to the results of Table 3: datum of anti-coxsackie B3 viruses activities of some compounds. […] IC50 indicates half inhibitory concentration for viruses. RBV indicates triazole nucleoside, is also called ribavirin, virazole.
row,IC50 [µg/mL],SMILES
1,10.2,CN(C)c1ccnc(-c2nc3c(C(=O)NC(CO)C(O)c4ccc([N+](=O)[O-])cc4)cccc3[nH]2)c1 (stereo not drawn) [(L)-2-(4-dimethylaminopyridyl)-1H-benzimidazole-4-[N-(1-hydroxymethyl-2-p-nitrophenylhydroxyethyl)]amide]
2,8.6,"Cc1cc(C)c(-c2nc3c(C(=O)NC(CO)C(O)c4ccc([N+](=O)[O-])cc4)cccc3[nH]2)[nH]1 (stereo not drawn) [(L)-2-(3,5-dimethyl-2-pyrrolyl)-1H-benzimidazole-4-[N-(1-hydroxymethyl-2-p-nitrophenylhydroxyethyl)]amide]"
3,11.1,Cn1cccc1-c1nc2c(C(=O)NC(CO)C(O)c3ccc([N+](=O)[O-])cc3)cccc2[nH]1 (stereo not drawn) [(L)-2-(N-methyl-2-pyrrolyl)-1H-benzimidazole-4-[N-(1-hydroxymethyl-2-p-nitrophenylhydroxyethyl)]amide]
4,5.8,O=C(NC(CO)C(O)c1ccc([N+](=O)[O-])cc1)c1cccc2[nH]c(-c3cccnn3)nc12 (stereo not drawn) [(L)-2-(3-pyridazinyl)-1H-benzimidazole-4-[N-(1-hydroxymethyl-2-p-nitrophenylhydroxyethyl)]amide]
5,17.2,Nc1ncnc(Cl)c1-c1nc2c(C(=O)NC(CO)C(O)c3ccc([N+](=O)[O-])cc3)cccc2[nH]1 (stereo not drawn) [(L)-2-(4-amino-6-chloro-5-pyrimidinyl)-1H-benzimidazole-4-[N-(1-hydroxymethyl-2-p-nitrophenylhydroxyethyl)]amide]
6,5.3,O=C(NC(CO)C(O)c1ccc([N+](=O)[O-])cc1)c1cccc2[nH]c(-c3ccc[nH]3)nc12 (stereo not drawn) [(L)-2-(2-pyrrolyl)-1H-benzimidazole-4-[N-(1-hydroxymethyl-2-p-nitrophenylhydroxyethyl)]amide]

# The next lines start with the molecule.
row,SMILES,IC50 [µg/mL]
1,Nc1ncnc(Cl)c1-c1nc2c(C(=O)Nc3ccccc3F)cccc2[nH]1 [2-(4-amino-6-chloro-5-pyrimidinyl)-1H-benzimidazole-4-(N-o-fluorophenyl)amide],11.3
2,O=C(Nc1ccccc1F)c1cccc2[nH]c(-c3cccs3)nc12 [2-thienyl-1H-benzimidazole-4-(N-(2-fluorophenyl)-amide],1.06
3,COc1ccnc(-c2nc3c(C(=O)Nc4ccc(N)cc4)cccc3[nH]2)c1 [2-(4-methoxypyridyl)-1H-benzimidazole-4-(N-p-aminophenyl)amide],13.4
4,O=C(Nc1ccccc1F)c1cccc2[nH]c(-c3ccc4ccccc4n3)nc12 [2-(2-quinolinyl)-1H-benzimidazole-4-(N-o-fluorophenyl)amide],15.3
5,Nc1ccc(NC(=O)c2cccc3[nH]c(-c4c(N)ncnc4Cl)nc23)cc1 [2-(4-amino-6-chloro-5-pyrimidinyl)-1H-benzimidazole-4-(N-p-aminophenyl)amide],14.1
6,Nc1ccc(-c2nc3c(C(=O)Nc4ccc(O)cc4)cccc3[nH]2)s1 [2-(5-amino-2-thienyl)-1H-benzimidazole-4-(N-p-hydroxyphenyl)amide],6.5
7,Cc1nc(-c2nc3c(C(=O)Nc4ccccc4F)cccc3[nH]2)sc1N [2-(4-methyl-5-aminothiazolyl)-1H-benzimidazole-4-(N-o-fluorophenyl)amide],10.2
8,CN1CCN(C)C(c2nc3c(C(=O)Nc4ccc(N)cc4)cccc3[nH]2)C1 (stereo not drawn) [2-(2-N-methyl-4-N-methylpiperazinyl)-1H-benzimidazole-4-(N-p-aminophenyl)amide],3.5
9,Cc1ccc(-c2nc3c(C(=O)Nc4ccccc4O)cccc3[nH]2)s1 [2-(5-methy-2-thienyl)-1H-benzimidazole-4-(N-o-hydroxyphenyl)amide],18.5
10,O=C(NC(CO)C(O)c1ccc([N+](=O)[O-])cc1)c1cccc2[nH]c(-c3cnc(-c4ccccc4)nc3)nc12 (stereo not drawn) [(L)-2-(2-phenyl-5-pyrimidinyl)-1H-benzimidazole-4-[N-(1-hydroxymethyl-2-p-nitrophenylhydroxyethyl)]amide],12.0
11,Nc1ccc(NC(=O)c2cccc3[nH]c(-c4cnc(-c5ccccc5)nc4)nc23)cc1 [2-(2-phenyl-5-pyrimidinyl)-1H-benzimidazole-4-(N-p-aminophenyl)amide],15.2
12,Cn1cccc1-c1nc2c(C(=O)Nc3ccccc3F)cccc2[nH]1 [2-(N-methyl-2-pyrrolyl)-1H-benzimidazole-4-(N-o-fluorophenyl)amide],13.2
13,O=C(Nc1ccccc1F)c1cccc2[nH]c(-c3ccc([N+](=O)[O-])s3)nc12 [2-(5-nitro-2-thienyl)-1H-benzimidazole-4-(N-(2-fluorophenyl))-amide],>9.25
14,Nc1ccc(NC(=O)c2cccc3[nH]c(N4CCNCC4)nc23)cc1 [2-N-piperazinyl-1H-benzimidazole-4-(N-p-aminophenyl)amide],6.3
15,O=C(Nc1ccccc1O)c1cccc2[nH]c(-c3cnccn3)nc12 [2-(2-pyrazinyl)-1H -benzimidazole-4-(N-o-hydroxyphenyl)amide],3.5
